The subject of test [1] is common cutworm (Spodoptera litura). Put plainly: Insecticidal test against common cutworm (Test Example 2). Type of test: in vivo. The following applies: in Brassica oleracea, foliar, 144 h, read-out: insecticidal rate (rate of dead insects). On the procedure:
A 10% emulsifiable concentrate (depending on the compounds, 10% wettable powder was applied for the test) of the compound of the present invention was diluted with water […] To the chemical solution was dipped leaves of cabbage for about 10 seconds, and after air-drying, they were placed in a laboratory dish, then 5-common cutworm (Spodoptera litura) in the stage of second instar larva per the dish were released therein, and the dish was covered with a lid and contained at a thermostat chamber at 25° C. […] Incidentally, the test was carried out with two districts.

The test system of test [2] is cabbage moth (Plutella xylostella). Briefly: Insecticidal test against cabbage moth (Test Example 1). Type of test: in vivo. The following applies: foliar, 144 h, read-out: insecticidal rate (rate of dead insects).

For the molecule `CC(=O)N(C(=O)c1ccc(C2=NOC(c3cc(Cl)cc(Cl)c3)(C(F)(F)F)C2)cc1C)n1cccn1` (stereo not shown) [5-044, N-Acetyl-4-[5-(3,5-dichlorophenyl)-5-trifluoromethyl-4,5-dihydroisoxazole-3-yl]-2-methyl-N-(1-pyrazolyl)benzoic acid amide], the pest or weed control at 100 ppm in test [1] and in test [2] was ≥ 80% each time.
In the case of `COCc1cc(C2=NOC(c3cc(Cl)cc(Cl)c3)(C(F)(F)F)C2)ccc1C(=O)NC(=N)OC` (stereo not shown) [6-031, 4-[5-(3,5-Dichlorophenyl)-5-trifluoromethyl-4,5-dihydroisoxazole-3-yl]-N-(methoxy-iminomethyl)-2-methoxymethyl benzoic acid amide], the pest or weed control at 10 ppm in test [1] and in test [2] was ≥ 80% each time.
On to `COC(=O)N(C(=O)c1ccc(C2=NOC(c3cc(Cl)cc(Cl)c3)(C(F)(F)F)C2)cc1C)c1ncccn1` (stereo not shown) [5-014, Methyl N-[4-[5-(3,5-dichlorophenyl)-5-trifluoromethyl-4,5-dihydroisoxazole-3-yl]-2-methylbenzoyl]-N-(2-pyrimidinyl)carbamate], for which the pest or weed control at 100 ppm in test [1] and in test [2] was ≥ 80% each time.
As to `COC(=O)NC(=O)c1ccc(C2=NOC(c3cc(Cl)c(Cl)c(Cl)c3)(C(F)(F)F)C2)cc1C` (stereo not shown) [2-026, Methyl N-[2-methyl-4-[5-(3,4,5-trichlorophenyl)-5-trifluoromethyl-4,5-dihydroisoxazole-3-yl]benzoyl]carbamate], the pest or weed control at 10 ppm in test [1] and in test [2] was ≥ 80% each time.
Turning to `Cc1cc(C2=NOC(c3cc(Cl)cc(Cl)c3)(C(F)(F)F)C2)ccc1C(=O)N(C)C(=O)NC(=O)CCl` (stereo not shown) [4-006, N-Chloroacetyl-N′-[4-[5-(3,5-dichlorophenyl)-5-trifluoromethyl-4,5-dihydroisoxazole-3-yl]-2-methylbenzoyl]-N′-methyl urea], the pest or weed control at 100 ppm in test [1] and in test [2] was ≥ 80% each time.
Consider `Cc1cc(C2=NOC(c3cc(Cl)cc(Cl)c3)(C(F)(F)F)C2)ccc1C(=O)NC(N)=O` (stereo not shown) [4-002, N-Carbamoyl-4-[5-(3,5-dichlorophenyl)-5-trifluoromethyl-4,5-dihydro-isoxazole-3-yl]-2-methyl benzoic acid amide], for which the pest or weed control at 100 ppm in test [1] and in test [2] was ≥ 80% in each case.
As for `CCO/N=C\NC(=O)c1ccc(C2=NOC(c3cc(Cl)cc(Cl)c3)(C(F)(F)F)C2)cc1OC(F)F` (stereo not shown) [6-023, (Z)-4-[5-(3,5-Dichlorophenyl)-5-trifluoromethyl-4,5-dihydroisoxazole-3-yl]-2-difluoromethoxy-N-(ethoxyiminomethyl)benzoic acid amide], the pest or weed control at 100 ppm in test [1] and in test [2] was ≥ 80% throughout.
Take `Cc1cc(C2=NOC(c3cc(Cl)cc(Cl)c3)(C(F)(F)F)C2)ccc1C(=O)N(C)C(N)=O` (stereo not shown) [4-003, N-Carbamoyl-4-[5-(3,5-dichlorophenyl)-5-trifluoromethyl-4,5-dihydroisoxazole-3-yl]-2-methyl-N-methyl benzoic acid amide]: the pest or weed control at 100 ppm in test [1] and in test [2] was ≥ 80% each time.
For the molecule `CCN(C(=O)NC(=O)c1ccc(C2=NOC(c3cc(Cl)cc(Cl)c3)(C(F)(F)F)C2)cc1C)C(=O)OC` (stereo not shown) [4-011, N-[4-[5-(3,5-dichlorophenyl)-5-trifluoromethyl-4,5-dihydro-isoxazole-3-yl]-2-methylbenzoyl]-N′-ethyl-N′-methoxycarbonyl urea], the pest or weed control at 10 ppm in test [1] and in test [2] was ≥ 80% each time.
As to `COC(=O)N(C(=O)c1ccc(C2=NOC(c3cc(Cl)cc(Cl)c3)(C(F)(F)F)C2)cc1C)C1CCCO1` (stereo not shown) [3-077, Methyl N-[4-[5-(3,5-dichlorophenyl)-5-trifluoromethyl-4,5-dihydro-isoxazole-3-yl]-2-methylbenzoyl]-N-(2-tetrahydrofuranyl)carbamate], the pest or weed control at 10 ppm in test [1] and in test [2] was ≥ 80% throughout.
Consider `CON=CNC(=O)c1ccc(C2=NOC(c3cc(Cl)cc(Cl)c3)(C(F)(F)F)C2)cc1CN(C)C` (stereo not shown) [6-032, 4-[5-(3,5-Dichlorophenyl)-5-trifluoromethyl-4,5-dihydroisoxazole-3-yl]-2-(dimethylaminomethyl)-N-(methoxyiminomethyl)benzoic acid amide], for which, in test [2], the pest or weed control at 500 ppm was ≥ 80%.
Consider `CON=CNC(=O)c1ccc(C2=NOC(c3cc(Cl)cc(Cl)c3)(C(F)(F)F)C2)cc1NC(C)=O` (stereo not shown) [6-033, 2-Acetylamino-4-[5-(3,5-dichlorophenyl)-5-trifluoromethyl-4,5-dihydroisoxazole-3-yl]-N-(methoxyiminomethyl)benzoic acid amide], for which the pest or weed control at 10 ppm in test [1] and in test [2] was ≥ 80% throughout.
For `CON=CN(C)C(=O)c1ccc(C2=NOC(c3cc(Cl)cc(Cl)c3)(C(F)(F)F)C2)cc1C` (stereo not shown) [7-002, 4-[5-(3,5-Dichlorophenyl)-5-trifluoromethyl-4,5-dihydroisoxazole-3-yl]-N-(methoxyiminomethyl)-N-methyl-2-methylbenzoic acid amide], the pest or weed control at 10 ppm in test [1] and in test [2] was ≥ 80% in each case.
For `COC(=O)N(COCC(F)(F)F)C(=O)c1ccc(C2=NOC(c3cc(Cl)cc(Cl)c3)(C(F)(F)F)C2)cc1C` (stereo not shown) [3-032, Methyl N-[4-[5-(3,5-dichlorophenyl)-5-trifluoromethyl-4,5-dihydro-isoxazole-3-yl]-2-methylbenzoyl]-N-(2,2,2-trifluoroethoxymethyl)carbamate], the pest or weed control at 10 ppm in test [1] and in test [2] was ≥ 80% each time.
With `Cc1cc(C2=NOC(c3cc(Cl)cc(Cl)c3)(C(F)(F)F)C2)ccc1C(=O)N(C)c1ncc(C#N)cn1` (stereo not shown) [5-171, N-(5-Cyano-2-pyrimidinyl)-4-[5-(3,5-dichlorophenyl)-5-trifluoromethyl-4,5-dihydroisoxazole-3-yl]-N-methyl-2-methyl benzoic acid amide], the pest or weed control at 10 ppm in test [1] and in test [2] was ≥ 80% throughout.
`Cc1cc(C2=NOC(c3cc(Cl)cc(Cl)c3)(C(F)(F)F)C2)ccc1C(=O)N(C)c1cncnc1` (stereo not shown) [5-164, 4-[5-(3,5-Dichlorophenyl)-5-trifluoromethyl-4,5-dihydroisoxazole-3-yl]-2-methyl-N-methyl-N-(5-pyrimidinyl)benzoic acid amide]: the pest or weed control at 10 ppm in test [1] and in test [2] was ≥ 80% each time.
Consider `COC(=O)NC(=O)c1c(C)cc(C2=NOC(c3cc(Cl)cc(Cl)c3)(C(F)(F)F)C2)cc1I` (stereo not shown) [2-019, Methyl N-[4-[5-(3,5-dichlorophenyl)-5-trifluoromethyl-4,5-dihydroisoxazole-3-yl]-6-iodo-2-methylbenzoyl]carbamate], for which the pest or weed control at 500 ppm in test [2] is ≥ 80%.
Turning to `Cc1cc(C2=NOC(c3cc(Cl)cc(Cl)c3)(C(F)(F)F)C2)ccc1C(=O)N(C)c1cccc(Br)n1` (stereo not shown) [5-075, N-(6-Bromo-2-pyridyl)-4-[5-(3,5-dichlorophenyl)-5-trifluoromethyl-4,5-dihydro-isoxazole-3-yl]-N-methyl-2-methyl benzoic acid amide], the pest or weed control at 10 ppm in test [1] and in test [2] was ≥ 80% throughout.
Consider `Cc1cc(C2=NOC(c3cc(Cl)cc(Cl)c3)(C(F)(F)F)C2)ccc1C(=O)N(C)C1(Cl)N=CC=CN1` (stereo not shown) [5-172, N-(2-Chloro-2-pyrimidinyl)-4-[5-(3,5-dichlorophenyl)-5-trifluoromethyl-4,5-dihydro-isoxazole-3-yl]-N-methyl-2-methyl benzoic acid amide], for which the pest or weed control at 10 ppm in test [1] is ≥ 80%. Also, the pest or weed control at 500 ppm in test [2] was ≥ 80%.
`COC(=O)N(C(=O)c1ccc(C2=NOC(c3cc(Cl)cc(Cl)c3)(C(F)(F)F)C2)cc1C)c1ccc(C#N)cn1` (stereo not shown) [5-071, Methyl N-(5-cyano-2-pyridyl)-N-[4-[5-(3,5-dichlorophenyl)-5-trifluoromethyl-4,5-dihydro-isoxazole-3-yl]-2-methylbenzoyl]carbamate]: the pest or weed control at 10 ppm in test [1] and in test [2] was ≥ 80% each time.
In the case of `COC(=O)N(C(=O)c1ccc(C2=NOC(c3cc(Cl)cc(Cl)c3)(C(F)(F)F)C2)cc1C)c1cncnc1` (stereo not shown) [5-169, Methyl N-[4-[5-(3,5-dichlorophenyl)-5-trifluoromethyl-4,5-dihydro-isoxazole-3-yl]-2-methylbenzoyl]-N-(5-pyrimidinyl)carbamate], the pest or weed control at 10 ppm in test [1] and in test [2] was ≥ 80% each time.
Regarding `CCc1cc(C2=NOC(c3cc(Cl)cc(Cl)c3)(C(F)(F)F)C2)ccc1C(=O)N/C=N\OC` (stereo not shown) [6-020, (Z)-4-[5-(3,5-Dichlorophenyl)-5-trifluoromethyl-4,5-dihydroisoxazole-3-yl]-2-ethyl-N-(methoxyiminomethyl)benzoic acid amide], the pest or weed control at 10 ppm in test [1] and in test [2] was ≥ 80% in each case.
On to `CC(=O)N(C(=O)c1ccc(C2=NOC(c3cc(Cl)cc(Cl)c3)(C(F)(F)F)C2)cc1C)c1cccc(Cl)n1` (stereo not shown) [5-073, N-Acetyl-N-(6-chloro-2-pyridyl)-4-[5-(3,5-dichlorophenyl)-5-trifluoromethyl-4,5-dihydroisoxazole-3-yl]-2-methyl benzoic acid amide], for which the pest or weed control at 10 ppm in test [1] and in test [2] was ≥ 80% throughout.
Take `COC(=O)N(C(=O)c1ccc(C2=NOC(c3cc(Cl)cc(Cl)c3)(C(F)(F)F)C2)cc1C)c1ccc(Cl)cn1` (stereo not shown) [5-060, Methyl N-(5-chloro-2-pyridyl)-N-[4-[5-(3,5-dichlorophenyl)-5-trifluoromethyl-4,5-dihydro-isoxazole-3-yl]-2-methylbenzoyl]carbamate]: the pest or weed control at 100 ppm in test [1] and in test [2] was ≥ 80% throughout.

(Values after patent US8673951B2, “Isoxazoline-substituted benzamide compound and pesticide” (priority 2005, dated 2014).)
